The subject of data set [1] is A2780/T cells. Put plainly: Intracellular accumulation of doxorubicin and Flutax-2. It counts as cell-based, human. The settings on record: 8 h, 4.5 μM nobiletin or 20 μM QND.
For data set [2] the following is noted: rats, single administration 50 mg/kg by gavage; cited from earlier work.
The subject of data set [3] is A2780/T cells. Put plainly: Apoptosis analysis by Annexin-V/PI double staining. Format: cell-based, human. The protocol:
After treatment, 1×10^6 cells were collected, washed and suspended in 100 μl of binding buffer (10 mM N-2-hydroxyethylpiperazine-N,-2-ethanesulfonic acid/NaOH, 140 mM NaCl, 2.5 mM CaCl2, pH 7.4). Apoptotic cells were identified by double supravital staining with 5 μl recombinant FITC (fluorescein isothiocyanate)-conjugated Annexin-V and 5 μl PI (50 μg/ml). The cells were stained for […] at room temperature in the dark, and analyzed by fluorescence-activated cell sorting cater-plus flow cytometry. Data acquisition and analysis were performed in BD FACS Aria with FlowJo software.

The nature of data set [4]: in vitro. It counts as cell-based. The settings on record: human. The protocol:
Sulphorhodamine B (SRB) assays were used for cell density determination, based on sensitive measure of total cellular protein, which perform similarly compared with other proliferation assays such as MTT assay. Briefly, cells were seeded into flat bottomed 96-well plates at an initial density of 7.5×10^3 per well before treatment. […] After removing the medium, cells were fixed in 10% trichloroacetic acid for 1 h at 4° C. and then washed with water five times. 0.4% SRB dissolved in 1% v/v acetic acid was added and incubated […] for staining. The cells were quickly washed with 1% acetic acid and left to dry overnight. The protein bound SRB was solubilized by adding 200 μl 10 mM Tris buffer per well and was measured at wavelengths 490 nm using a plate reader (Spectra MAX 250; Molecular Devices, Sunnyvale, Calif.). The optical density of SRB in each well is directly proportional to the cell number.

The conditions of data set [5]: healthy subjects, single dose of Sytrinol (1053 mg total polymethoxylated flavones); cited from earlier work.
The subject of data set [6] is Caco-2 cells. The settings on record: nobiletin 20 μM; cited from earlier work.

The values that follow come from patent publication US9808477B2 (Macau University of Science and Technology, priority 2015, dated 2017).

Where two headings read alike, the source gives them in different places. Some results are limits rather than exact numbers.

Take `COc1ccc(-c2cc(=O)c3c(OC)c(OC)c(OC)c(OC)c3o2)cc1OC` [nobiletin]: the “intracellular accumulation of DOX” value in data set [1] (5 μM DOX) is reported as “higher than that in untreated A2780/T”. Besides, the “intracellular accumulation of Flutax-2” value in data set [1] (Flutax-2 1 μM) is “higher than that in untreated A2780/T”. Moreover, the figures for the peak plasma level in data set [2] and in data set [5] were about 22.5 µM and about 2.5 µM, respectively. Moreover, the “apoptosis induction, single treatment” value in data set [3] (9 μM nobiletin alone or 0.94 μM PTX alone) was “did not show apoptosis induction”. Moreover, the “apoptosis induced by 0.94 μM PTX (annexin V-FITC positive)” value in data set [3] (0.5, 1.5, 4.5 and 9 μM nobiletin + 0.94 μM PTX, 48 h) is reported as “significantly increase apoptosis”. In data set [4], this molecule displayed a viability at 9 µM of over 90%. Further, in data set [6], the “increase of uptake of [3H] vinblastine” value is reported as 3 fold.

One may read the viability as the share of living cells, or the viability signal relative to a control.
